Measurements published in patent publication US20250064789A1, “KETOAMIDE DERIVATIVES AND PHARMACEUTICAL USES THEREOF” (priority 2022, published 2025).
Read-outs that look alike come from different tables or passages of the source.

Tests used:
[1] = Metabolic stability using human liver microsomes; assay type: in vitro ADME; details: pH 7.4, NADPH, 37° C., read-out: Human liver microsomes T1/2
human thrombin = human thrombin (Homo sapiens (Human), UniProt P00734); assay: Human protease biochemical activity assay: Thrombin activity testing kit
Experimental: (§1) The biochemical activity of compounds against human proteases was determined using Cathepsin K inhibitor screening kit (K150-100), Cathepsin B inhibitor screening kit (K147-100), Thrombin activity testing kit (K373-100), Caspase-2 inhibitor screening kit (K152-100), and Cathepsin D inhibitor screening kit (K148-100) according to the instructions of the kits (Biovision, USA). All experiments were carried out in triplicate. All experimental data were analyzed using GraphPad Prism software.

human cathepsin K = human cathepsin K (Homo sapiens (Human), UniProt P43235); assay: Human protease biochemical activity assay: Cathepsin K inhibitor screening kit
Experimental: as §1

human cathepsin B = human cathepsin B (Homo sapiens (Human), UniProt P07858); assay: Human protease biochemical activity assay: Cathepsin B inhibitor screening kit
Experimental: as §1

human caspase 2 = human caspase 2 (Homo sapiens (Human), UniProt P42575); assay: Human protease biochemical activity assay: Caspase-2 inhibitor screening kit
Experimental: as §1

human cathepsin D = human cathepsin D (Homo sapiens (Human), UniProt P07339); assay: Human protease biochemical activity assay: Cathepsin D inhibitor screening kit
Experimental: as §1

MERS-CoV = assay type: cell-based
SARS-CoV-1 = assay type: cell-based
[2] = system: SARS-CoV-2 Omicron (B.1.1.529) BA.2; assay: Antiviral activity by plaque method in Vero E6-TMPRSS2 cells: SARS-CoV-2 Omicron BA.2; assay type: cell-based
[3] = system: SARS-CoV-2 Omicron (B.1.1.529) BA.5; assay: Antiviral activity by plaque method in Vero E6-TMPRSS2 cells: SARS-CoV-2 Omicron BA.5; assay type: cell-based
[4] = system: SARS-CoV-2 Omicron (B.1.1.529) BA.2; parameters: species or system K18-hACE2 transgenic mice; details: mouse, in vivo
in vivo [5] = assay type: in vivo, ICR mice; details: for MRT inf: read-out: MRTINF—obs
in vivo [6] = assay type: in vivo, beagle dogs; details: for MRT inf: read-out: MRTINF—obs
Experimental: Male ICR mice (6-8 weeks old, weighing 16-25 g), male beagle dogs (1-2 years old, weighing 9-12 kg), or male cynomolgus monkeys (6-7 years old, weighing 6-8 kg) were randomly divided into groups, with three animals for each group, and a series of test compounds were administered orally (p.o.) or intravenously (i.v.) according to the protocol in following Table 10.
The solution for gavage and intravenous administration was prepared with DMSO/HS15/PEG400/NaCl (5/3/40/52, […]). The administration time was recorded, and for each sample, approximately 0.20 mL of blood was collected by jugular vein blood collection or other appropriate methods at the pre-determined time points. The blood sample was anticoagulated with heparin sodium, and after collection, the blood was placed on ice. The sample was centrifuged to separate the plasma within 1 h (centrifugation conditions: 6800 g, 6 min, 2-8° C.). Plasma samples were stored in a −80° C. freezer before analysis. The grouping and blood collection time points are shown in Table 4, with 3 animals at each time point.

in vivo [7] = assay type: in vivo, cynomolgus monkeys; details: for MRT inf: read-out: MRTINF—obs
in vivo [8] = details: male, Sprague-Dawley, rat
[9] = target: hERG potassium ion channels (Homo sapiens (Human), UniProt Q12809); assay: hERG potassium current, whole cell patch clamp in HEK-293-hERG cells; details: 30 μM
[10] = Preliminary evaluation of in vivo safety (acute and general toxicity test); details: p.o.; 1000 mg/kg single-dose; 800, 600, 400 mg/kg twice a day for 14 consecutive days
[11] = male, mouse, in vivo, iv, ICR mice, i.v. 1 mg/kg
[12] = male, dog, in vivo, po, beagle dogs, p.o. 10 mg/kg
[13] = male, cynomolgus monkey, in vivo, iv, cynomolgus monkeys, i.v. 1 mg/kg

human caspase 2, sequence (P42575 170-325): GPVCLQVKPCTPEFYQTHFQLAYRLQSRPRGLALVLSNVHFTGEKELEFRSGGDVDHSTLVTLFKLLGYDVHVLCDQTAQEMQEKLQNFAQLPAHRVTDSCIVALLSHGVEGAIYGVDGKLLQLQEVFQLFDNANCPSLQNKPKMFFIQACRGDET
human caspase 2, sequence (P42575 348-452): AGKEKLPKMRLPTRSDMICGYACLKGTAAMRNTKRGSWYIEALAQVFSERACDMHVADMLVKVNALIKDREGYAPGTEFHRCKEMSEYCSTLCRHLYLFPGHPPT
hERG potassium ion channels, sequence (Q12809 whole entry, looked up): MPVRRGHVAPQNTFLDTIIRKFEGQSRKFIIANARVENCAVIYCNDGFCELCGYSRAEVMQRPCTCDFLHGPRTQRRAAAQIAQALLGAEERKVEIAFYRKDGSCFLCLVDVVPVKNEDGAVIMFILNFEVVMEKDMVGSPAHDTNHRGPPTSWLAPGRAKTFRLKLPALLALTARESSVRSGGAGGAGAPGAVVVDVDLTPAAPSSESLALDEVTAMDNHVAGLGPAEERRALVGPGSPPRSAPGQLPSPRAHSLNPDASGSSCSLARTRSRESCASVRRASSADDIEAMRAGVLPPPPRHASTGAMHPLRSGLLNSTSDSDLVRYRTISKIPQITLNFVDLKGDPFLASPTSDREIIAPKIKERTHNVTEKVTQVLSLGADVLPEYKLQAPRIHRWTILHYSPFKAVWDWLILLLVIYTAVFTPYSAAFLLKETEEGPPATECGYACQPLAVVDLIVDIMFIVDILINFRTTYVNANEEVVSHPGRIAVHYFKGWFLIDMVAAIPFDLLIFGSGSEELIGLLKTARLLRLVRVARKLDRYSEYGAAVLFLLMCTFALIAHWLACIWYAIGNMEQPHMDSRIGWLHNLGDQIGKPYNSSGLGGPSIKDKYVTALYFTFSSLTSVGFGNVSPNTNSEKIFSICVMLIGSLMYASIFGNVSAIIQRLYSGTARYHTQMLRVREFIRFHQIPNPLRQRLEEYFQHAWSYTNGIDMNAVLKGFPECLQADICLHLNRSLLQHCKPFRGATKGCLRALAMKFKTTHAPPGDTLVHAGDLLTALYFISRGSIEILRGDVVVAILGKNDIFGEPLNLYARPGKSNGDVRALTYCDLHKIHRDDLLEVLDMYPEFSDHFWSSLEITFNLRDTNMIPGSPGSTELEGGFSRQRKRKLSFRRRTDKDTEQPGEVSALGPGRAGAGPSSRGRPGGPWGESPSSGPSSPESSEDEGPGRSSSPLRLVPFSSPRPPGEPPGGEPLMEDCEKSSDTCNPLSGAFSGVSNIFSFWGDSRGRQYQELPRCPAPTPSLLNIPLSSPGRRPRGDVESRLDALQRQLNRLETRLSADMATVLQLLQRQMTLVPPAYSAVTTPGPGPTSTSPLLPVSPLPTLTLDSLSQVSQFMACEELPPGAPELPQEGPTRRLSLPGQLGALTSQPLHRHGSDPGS
human cathepsin K, sequence (P43235 115-329): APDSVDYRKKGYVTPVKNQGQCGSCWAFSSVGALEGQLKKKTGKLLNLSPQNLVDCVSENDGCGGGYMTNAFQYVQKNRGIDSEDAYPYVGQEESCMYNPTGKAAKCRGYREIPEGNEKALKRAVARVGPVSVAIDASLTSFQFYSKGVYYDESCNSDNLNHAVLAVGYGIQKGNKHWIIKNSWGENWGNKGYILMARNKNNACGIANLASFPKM
human cathepsin D, sequence (P07339 65-412): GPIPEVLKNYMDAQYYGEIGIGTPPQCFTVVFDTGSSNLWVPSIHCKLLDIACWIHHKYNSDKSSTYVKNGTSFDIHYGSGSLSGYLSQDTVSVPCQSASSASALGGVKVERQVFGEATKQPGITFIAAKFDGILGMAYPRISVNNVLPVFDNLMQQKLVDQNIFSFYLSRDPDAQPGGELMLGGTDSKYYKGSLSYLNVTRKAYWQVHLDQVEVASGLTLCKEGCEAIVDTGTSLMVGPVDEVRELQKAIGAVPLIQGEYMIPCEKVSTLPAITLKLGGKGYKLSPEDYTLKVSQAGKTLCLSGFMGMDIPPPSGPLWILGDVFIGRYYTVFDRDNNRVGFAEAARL

COC[C@@H](NC(=O)C1CCCC(F)(F)C1)C(=O)N[C@H](Cc1ccccc1)C(=O)C(=O)NCc1nccs1 (stereo partly drawn) [Compound 398, N—((R)-1-(((R)-3,4-dioxo-1-phenyl-4-((thiazole-2-ylmethyl)amino)butan-2-yl)amino)-3-methoxy-1-oxopropan-2-yl)-3,3-difluorocyclohexane-1-formamide]
half-life at 1 µM [1]: 35.3 min
IC50 (human thrombin): > 100 µM
IC50 (human cathepsin K): > 100 µM
IC50 (human cathepsin B): > 100 µM
IC50 (human caspase 2): > 100 µM
IC50 (human cathepsin D): > 100 µM
anti-viral activity, times higher than Nirmatrelvir (PF-07321332) (MERS-CoV): 1.79 times
anti-viral activity, times higher than Nirmatrelvir (PF-07321332) (SARS-CoV-1): 17.14 times
anti-viral activity, times higher than Nirmatrelvir (PF-07321332) [2]: 2.82 times
anti-viral activity, times higher than Nirmatrelvir (PF-07321332) [3]: 4.00 times
infectious viral load in the lungs by plaque assay (in words) [4]: effectively inhibited the production of infectious viral particles in the lungs
inhibition of viral subgenome mRNA (sgRNA) in the lungs [4]: 337 times
lung histopathology, H&E staining (in words) [4]: scattered inflammatory cell infiltration was occasionally observed
reduction of sgRNA copies in the lungs [4]: 12 times
reduction of sgRNA copy in the lungs compared with mice treated with Nirmatrelvir [4]: four times
reduction of vRNA copies in the lungs [4]: 16 times
reduction of vRNA copy in the lungs compared with mice treated with Nirmatrelvir [4]: four times
reduction of viral genomic RNA (vRNA) in the lungs [4]: 179 times
pharmacokinetic properties in mice (in words) (in vivo [5]; i.v. 1 mg/kg, p.o. 150 mg/kg): good pharmacokinetic properties
Tmax (in vivo [5]; [11]): 4.8 min
MRT inf (in vivo [5]; [11]): 10.2 ± 1.8 min
MRT inf (in vivo [5]; male, mouse, in vivo, po, ICR mice, p.o. 150 mg/kg): 217 ± 70.8 min
Vssobs (in vivo [6]; beagle dogs, i.v. 1 mg/kg): 1.41964 ± 0.16026 L/kg
pharmacokinetic properties in beagle dogs (in words) (in vivo [6]; i.v. 1 mg/kg, p.o. 10 mg/kg): good pharmacokinetic properties
MRT inf (in vivo [6]; male, dog, in vivo, iv, beagle dogs, i.v. 1 mg/kg): 28.2 ± 3 min
Tmax (in vivo [6]; [12]): 60 min
MRT inf (in vivo [6]; [12]): 128 ± 10.8 min
Vssobs (in vivo [7]; cynomolgus monkeys, i.v. 1 mg/kg): 2.0658 ± 0.37439 L/kg
pharmacokinetic properties in cynomolgus monkeys (in words) (in vivo [7]; i.v. 1 mg/kg, p.o. 10 mg/kg): good pharmacokinetic properties
Tmax (in vivo [7]; [13]): 4.8 min
clearance (in vivo [7]; [13]): 2000 ± 257 mL/min/kg
MRT inf (in vivo [7]; [13]): 54 ± 10.8 min
MRT inf (in vivo [7]; male, cynomolgus monkey, in vivo, po, cynomolgus monkeys, p.o. 10 mg/kg): 283 ± 53.4 min
MRT inf (in vivo [8]; iv, 1 mg/kg): 140 ± 13.2 min
Tmax (in vivo [8]; iv, 1 mg/kg): 4.8 min
MRT inf (in vivo [8]; po, 10 mg/kg): 396 ± 53.4 min
Tmax (in vivo [8]; po, 10 mg/kg): 240 ± 120 min
The average inhibition rate on hERG current [9]: 1.28%
body weight and general condition during the administration period [10]: 1. During the administration period, no abnormal body
